Assay results published in patent publication US20210205312A1, “TREATMENT OF MEMBRANOUS NEPHROPATHY, IGG4-RELATED DISEASE, AND ANTIPHOSPHOLIPID SYNDROME USING BTK INHIBITOR 2-[(3R)-3-[4-AMINO-3-(2-FLUORO-4-PHENOXY-PHENYL)PYRAZOLO[3,4-d]PYRIMIDIN-1-YL]PIPERIDINE-1-CARBONYL]-4-METHYL-4-[4-(OXETAN-3-YL)PIPERAZIN-1-YL]PENT-2-ENENITRILE” (Principia Biopharma Inc., priority 2020, published 2021).
Where two headings read alike, the source gives them in different places.

Tests used:
ADCC = experiment: Antibody-dependent cell-mediated cytotoxicity (ADCC) in combination with anti-CD20 antibodies; format: cell-based
[1] = tested on: CD20+ B-cells in human whole blood; experiment: B-cell activation: anti-IgM-induced CD69 expression on CD20+ B-cells in human whole blood (flow cytometry); format: cell-based; conditions: read-out: IC50 for inhibition of CD69 B-cell expression
Procedure: Compound (I) can inhibit B-cell activation, BCR dependent B-cell proliferation, and de novo antibody production. To determine the functional activity of Compound (I), the ability of the compound to inhibit B-cell activation as assessed by anti-IgM-induced CD69 expression in CD20+ B-cells in human whole blood was determined (FIG. 7). […]. As an additional measure of the effects of Compound (I) on B-cell function, the ability of Compound (I) to inhibit B-cell receptor (BCR)-induced human B-cell proliferation was determined. […]. A randomized multicenter trial comparing low-dose prednisolone versus observation for prevention of recurrences in adult immune thrombocytopenia. Clin Appl Thromb Hemost 24: 867-873.).

[2] = tested on: anti-GBM glomerulonephritis; experiment: Mouse anti-GBM glomerulonephritis model; format: in vivo
Procedure: The mouse anti-GBM glomerulonephritis model involves antibody mediated autoimmunity, and the model is histologically and mechanistically similar to glomerulonephritis in humans. The model also includes kidney deposition of immune complexes (IC), targeting glomerular basement membrane. The efficacy of Compound (I) (also referred to as PRN1008) relative to the corticosteroid dexamethasone (Dex) was tested in a mouse anti-GBM glomerulonephritis model according to the design shown in FIG. 1. Briefly, to induce glomerulonephritis, mice were pre-sensitized with sheep IgG/FCA (Study Day −5). Five days later (Study Day 0), the mice received anti-GBM sheep IgG. Treatment with vehicle, Compound (I), or Dex with various dosage regimes (Compound (I): 10 mg/kg, 20 mg/kg, or 40 mg/kg QD or 20 mg/kg BID; Dex: 1 mg/kg QD; Vehicle: QD or BID) began at Study Day −1, one day prior to injection with anti-GBM sheep IgG. Treatment continued until Study Day 10, for […] treatment in total. Urine protein analysis was conducted on Study Days −6, −4, −1, 1, 3, 6, 8, and 10. Following Study Day 10, mice serum BUN levels were analyzed as a measure of kidney function, and kidney histology was performed.

[3] = tested on: enriched B-cells from healthy volunteers; experiment: Inhibition of B-cell antibody production (IgG and IgM AlphaLISA); conditions: for IC50: Homo sapiens, B-cell, 168 h
Procedure: B-cells were enriched from leukocyte concentrate of TrimaAccel® LRS chamber recovered after a plateletpheresis procedure from healthy volunteers (Stanford Blood Center, Palo Alto, Calif.) using the Straight from LRSC CD19 Microbead Kit (Miltenyi Biotech). […] IC50 was calculated in GraphPad Prism with non-linear regression using “log (inhibitor) vs. response—Variable slope (four parameters)” analysis with no constraints.

[4] = 10, 20 or 40 mg/kg QD or 20 mg/kg BID, Study Day -1 to 10

CC(C)(C=C(C#N)C(=O)N1CCC[C@@H](n2nc(-c3ccc(Oc4ccccc4)cc3F)c3c(N)ncnc32)C1)N1CCN(C2COC2)CC1 [Compound (I), 2-[(3R)-3-[4-amino-3-(2-fluoro-4-phenoxy-phenyl)pyrazolo[3,4-d]pyrimidin-1-yl]piperidine-1-carbonyl]-4-methyl-4-[4-(oxetan-3-yl)piperazin-1-yl]pent-2-enenitrile]
effect on ADCC (ADCC): did not block
IC50 [1]: 126 ± 32 nM
inhibition of kidney weight gain (surrogate for kidney inflammation) [2, 4]: dose dependent inhibition
inhibition of severe proteinuria [2, 4]: dose dependent inhibition
inhibition of serum blood urea nitrogen (BUN) levels ([2]; 10, 20 or 40 mg/kg QD or 20 mg/kg BID, Study Day -1 to 10, BUN after Day 10): dose dependent inhibition
kidney pathology (histology) ([2]; compared with Dex 1 mg/kg QD): significantly reduced kidney pathology, superior to a steroid comparator (Dex)
proteinuria during the study ([2]; urine protein analysis up to Study Day 10): reduced proteinuria
T-dependent and T-independent antibody production (IgG and IgM) ([3]; CpG, TNP-LPS or anti-CD40+IL-21 stimulation, 7 days): inhibited
IC50 ([3]; read-out: IgG antibody production IC50, CpG (TLR-9 agonist) stimulation, T-independent, 7 days): 50 ± 90 nM
IC50 ([3]; read-out: IgG antibody production IC50, TNP-LPS stimulation, T-independent, 7 days): 300 ± 600 nM
IC50 ([3]; read-out: IgG antibody production IC50, anti-CD40 + IL-21 stimulation (T-cell dependent), 7 days): 20 ± 20 nM
IC50 ([3]; read-out: IgM antibody production IC50, CpG (TLR-9 agonist) stimulation, T-independent, 7 days): 1 ± 1 nM
IC50 ([3]; read-out: IgM antibody production IC50, TNP-LPS stimulation, T-independent, 7 days): 200 ± 600 nM
IC50 ([3]; read-out: IgM antibody production IC50, anti-CD40 + IL-21 stimulation (T-cell dependent), 7 days): 800 ± 1000 nM
